Test results as given in paper PMC4849104, “Selected novel 5'-amino-2'-hydroxy-1, 3-diaryl-2-propen-1-ones arrest cell cycle of HCT-116 in G0/G1 phase” (EXCLI Journal, 2016).
Where “and” joins values, the source holds several entries; their conditions need not be identical. Equal entries are not always repeated.

Tests used:
[1] = test system: human colon cancer (HCT-116) cells; assay: Cytotoxicity by MTT assay on HCT-116; type: cell-based; details: for IC50 / IC50 (μM) HCT-116: MTT assay, 48 h incubation; for cytotoxicity against HCT-116 (in words): MTT, close to 200 µM including SEM
Method: (§1) Cytotoxicity of the synthesized compounds was evaluated in cancer cells namely human colon cancer (HCT-116) cells and human breast cancer (MCF-7) cells and normal kidney epithelial cells (Vero). These cells were originally procured from National Cancer Center for Cell Science, Pune, India and cultured in our lab using Dulbecco's modified Eagles medium (DMEM) containing 10 % fetal bovine serum (FBS) at 37 °C in an atmosphere containing 5 % CO2. All other chemicals used in this study were purchased from Sigma-Aldrich, USA.
(§2) Cell suspension containing 1 x 10^4 cells in 0.1 mL was seeded in a 96 well plate for 24 h. Test compounds were serially diluted with the medium to get a stock solution of 400 µM, 200 µM, 100 µM, 50 µM. After 24 h of incubation, 100 µL of test solution from respective stocks was added in triplicate and incubated for 48 h. After the treatment, drug-containing media was removed and 20 µL of MTT reagent (5 mg/mL in PBS) was added to each well. After 4 h of incubation at 37 °C, the MTT reagent was removed and 100 µL of 100 % DMSO was added to each well to solubilize formazan crystals. The optical density was measured using an ELISA plate reader at 540 nm and percentage cytotoxicity was calculated. (Kumar et al., 2012[15]; Zi and Simoneau, 2005[31]).

[2] = test system: human breast cancer (MCF-7) cells; assay: Cytotoxicity by MTT assay on MCF-7; type: cell-based; details: for IC50 / IC50 (μM) MCF-7: MTT assay, 48 h incubation; for cytotoxicity against MCF-7 (in words): MTT, close to 200 µM including SEM
Method: as §1, §2

[3] = test system: normal kidney epithelial cells (Vero); assay: Cytotoxicity by MTT assay on Vero; type: cell-based; details: 48 h incubation
Method: as §1, §2

HCT-116 cells [4] = assay: Acridine orange/ethidium bromide (AO/EB) dual nuclear staining, apoptotic index; type: cell-based, human; details: HCT-116, AO/EB; for percentage apoptotic nuclei (apoptotic index): mean ± SEM
Method: DNA-binding dyes Acridine orange (AO) and Ethidium bromide (EB) (Sigma, USA) were used for the morphological detection of apoptotic cells. 5 x 10^3 cells were seeded per well in 24-well plates with DMEM, containing 10 % FBS. After 24 h, cells were treated with selected concentrations of test compounds and incubated for 24 h. The media was removed and plate was washed with phosphate buffer saline (PBS, pH 7.4). Cells were fixed in ice-cold methanol for 20 min, washed with PBS again and stained with acridine orange and ethidium bromide stain (20/30 µg/ml). After incubation for 20 min at 37 °C, and washing with PBS thrice, the plate was observed under a fluorescent microscope for morphological changes in nucleus such as condensed chromatin and fragmented nuclei. The apoptotic index (AI) was calculated as % of apoptotic cells from randomly counted 100 cells in each treatment group (Reddy et al., 2015[25]).

HCT-116 cells [5] = assay: Cell cycle analysis by flow cytometry with propidium iodide; type: cell-based, human; details: for phase of cell cycle arrest: HCT-116, AC-10 100 µM, AC-13 and AC-14 50 µM, doxorubicin 1 µM
Method: Flow cytometric analysis technique evaluates the effect of test compounds on cell cycle progression and check-points. Cells (1 x 10^6) were seeded in 25 cm^2 flasks and, after overnight adherence, incubated with test compounds. Then cells were detached by trypsinization and mixed with floating cells, centrifuged and washed with PBS. The cell pellets were fixed in 70 % ice-cold methanol and stored at -20 °C for 24 h. After that cell pellets were washed with PBS and isotonic PI solution [25 µM propidium iodide, 0.03 % NP-40 and 40 µg /ml RNase A] was added. The stained cells were analyzed using Accuri C6 flow cytometer (BD Biosciences, San Jose, CA, USA) with excitation at 488 nm and emission at 575/40 nm (Reddy et al., 2015[25]).

| Compound | melting point [°C] | IC50 ([1]; Homo sapiens, HCT-116) [µM] | cytotoxicity against HCT-116 (in words) [1] | IC50 ([2]; Homo sapiens, MCF7) [µM] | IC50 ([3]; Chlorocebus sabaeus, Vero) [µM] | cytotoxicity against MCF-7 (in words) [2] | IC50 (μM) MCF-7 [2] | also measured |
| --- | --- | --- | --- | --- | --- | --- | --- | --- |
| Nc1ccc(O)c(C(=O)/C=C/c2ccc(F)cc2)c1 [AC-3, (E)-1-(5-Amino-2-Hydroxyphenyl)-3-(4-fluorophenyl)prop-2-en-1-one] | 154 | 174 ± 3.53 | high cytotoxicity | 542 ± 38.5 | > 200 | – | – | – |
| Nc1ccc(O)c(C(=O)/C=C/c2ccccc2)c1 [AC-1, (E)-1-(5-Amino-2-Hydroxyphenyl)-3-phenylprop-2-en-1-one] | 126 | 299 ± 49.8 | – | 1960 ± 776 | > 200 | – | – | – |
| COc1cccc2c1C(=O)c1c(O)c3c(c(O)c1C2=O)C[C@@](O)(C(=O)CO)C[C@@H]3O[C@H]1C[C@H](N)[C@H](O)[C@H](C)O1 [doxorubicin, reference compound] | – | – | – | – | – | – | – | more accumulation of cells in G2/M phase as compared to normal control (HCT-116 cells [5]; HCT-116, 1 µM (standard), normal control 23.0 %): 7.4%; phase of cell cycle arrest (HCT-116 cells [5]): G2/M phase |
| COc1cccc(/C=C/C(=O)c2cc(N)ccc2O)c1 [AC-6, (E)-1-(5-Amino-2-Hydroxyphenyl)-3-(3-methoxyphenyl)prop-2-en-1-one] | 110 | – | – | – | > 200 | – | No activity | IC50 (μM) HCT-116 [1]: No activity |
| (E)-1-(5-Amino-2-Hydroxyphenyl)-3-(3,4-dichlorophenyl)prop-2-en-1-one [AC-12] | – | – | – | – | – | – | – | IC50 [1]: 169 ± 66.7 µM; IC50 [2]: 236 ± 9.8 µM; IC50 [3]: > 200 µM |
| COc1ccc(/C=C/C(=O)c2cc(N)ccc2O)cc1O [AC-8, (E)-1-(5-Amino-2-Hydroxyphenyl)-3-(3-hydroxy-4-methoxyphenyl)prop-2-en-1-one] | 136 | 123 ± 7.2 | high cytotoxicity | 171 ± 12.9 | > 200 | high cytotoxicity | – | – |
| Nc1ccc(O)c(C(=O)/C=C/c2cccc([N+](=O)[O-])c2)c1 [AC-4, (E)-1-(5-Amino-2-Hydroxyphenyl)-3-(3-nitrophenyl)prop-2-en-1-one] | 112 | 309 ± 74.1 | – | – | > 200 | – | No activity | – |
| COc1cc(/C=C/C(=O)c2cc(N)ccc2O)ccc1O [AC-7, (E)-1-(5-Amino-2-Hydroxyphenyl)-3-(4-hydroxy-3-methoxyphenyl)prop-2-en-1-one] | 136 | 393 ± 77.9 | – | 248 ± 4.31 | > 200 | – | – | – |
| Nc1ccc(O)c(C(=O)/C=C/c2ccc(Cl)cc2)c1 [AC-2, (E)-1-(5-Amino-2-Hydroxyphenyl)-3-(4-chlorophenyl)prop-2-en-1-one] | 138 | 205 ± 3.15 | high cytotoxicity | – | > 200 | – | No activity | – |
| CCOc1ccc(/C=C/C(=O)c2cc(N)ccc2O)cc1 [AC-5, (E)-1-(5-Amino-2-Hydroxyphenyl)-3-(4-ethoxyphenyl)prop-2-en-1-one] | 135 | – | – | – | > 200 | – | No activity | IC50 (μM) HCT-116 [1]: No activity |

More lines, main results first:

| melting point [°C] | Compound | IC50 ([1]; Homo sapiens, HCT-116) [µM] | cytotoxicity against HCT-116 (in words) [1] | IC50 ([2]; Homo sapiens, MCF7) [µM] | IC50 ([3]; Chlorocebus sabaeus, Vero) [µM] | cytotoxicity against MCF-7 (in words) [2] | IC50 (μM) MCF-7 [2] | also measured |
| --- | --- | --- | --- | --- | --- | --- | --- | --- |
| 90 | COc1ccc(/C=C/C(=O)c2cc(N)ccc2O)cc1OC [AC-9, (E)-1-(5-Amino-2-Hydroxyphenyl)-3-(3,4-dimethoxyphenyl)prop-2-en-1-one] | 186 ± 7.3 | high cytotoxicity | 190 ± 10.5 | > 200 | high cytotoxicity | – | – |
| 136 to 138 | COc1cc(/C=C/C(=O)c2cc(N)ccc2O)cc(OC)c1OC [AC-14, (E)-1-(5-Amino-2-Hydroxyphenyl)-3-(3,4,5-trimethoxyphenyl)prop-2-en-1-one] | 62 ± 2.3 | high cytotoxicity | 197 ± 7.9 | > 200 | high cytotoxicity | – | percentage apoptotic nuclei (apoptotic index) (HCT-116 cells [4]; 50 µM): 24.3 ± 3.53%; % cells in G0/G1 phase (M1) (HCT-116 cells [5]; HCT-116, 50 µM, 48 h treatment): 70.8%; phase of cell cycle arrest (HCT-116 cells [5]): G0/G1 phase |
| 128 | Nc1ccc(O)c(C(=O)/C=C/c2ccc3c(c2)OCO3)c1 [AC-13, (E)-1-(5-Amino-2-Hydroxyphenyl)-3-(3,4-methylenedioxyphenyl)prop-2-en-1-one] | 42.1 ± 4 | high cytotoxicity | 130 ± 3.8 | > 200 | high cytotoxicity | – | increase in apoptotic nuclei compared to medium control (HCT-116 cells [4]; 50 µM): about five; percentage apoptotic nuclei (apoptotic index) (HCT-116 cells [4]; 50 µM): 31% and 31 ± 4.16%; % cells in G0/G1 phase (M1) (HCT-116 cells [5]; HCT-116, 50 µM, 48 h treatment): 66.5%; % cells in G2/M phase (M3) (HCT-116 cells [5]; HCT-116, 50 µM, 48 h treatment): 25.1%; phase of cell cycle arrest (HCT-116 cells [5]): G0/G1 and G2/M phase |
| 102 to 104 | COc1ccc(/C=C/C(=O)c2cc(N)ccc2O)cc1 [AC-11, (E)-1-(5-Amino-2-Hydroxyphenyl)-3-(4-methoxyphenyl)prop-2-en-1-one] | – | – | 1030 ± 60.6 | > 200 | – | – | IC50 (μM) HCT-116 [1]: No activity |
| 130 to 132 | Nc1ccc(O)c(C(=O)/C=C/c2ccccc2O)c1 [AC-10, (E)-1-(5-Amino-2-Hydroxyphenyl)-3-(2-hydroxyphenyl)prop-2-en-1-one] | 95.4 ± 1.7 | high cytotoxicity | 74.7 ± 3.5 | > 200 | high cytotoxicity | – | percentage apoptotic nuclei (apoptotic index) (HCT-116 cells [4]; 100 µM): 27 ± 3.21%; % cells in G0/G1 phase (M1) (HCT-116 cells [5]; HCT-116, 100 µM, 48 h treatment): 70.5%; phase of cell cycle arrest (HCT-116 cells [5]): G0/G1 phase |
| 136 to 138 | Nc1ccc(O)c(C(=O)/C=C/c2ccc(OCc3ccccc3)cc2)c1 [AC-15, (E)-1-(5-Amino-2-Hydroxyphenyl)-3-(4-benzyloxyphenyl)prop-2-en-1-one] | 211 ± 26 | – | – | > 200 | – | No activity | – |
